Publication PMC9033620 (RSC Advances, 2021)

Target: β-tubulin (Sus scrofa, UniProt P02554+Q2XVP4)
Test: X-ray crystal structure
Type: binding

β-tubulin, sequence (Q2XVP4 whole entry): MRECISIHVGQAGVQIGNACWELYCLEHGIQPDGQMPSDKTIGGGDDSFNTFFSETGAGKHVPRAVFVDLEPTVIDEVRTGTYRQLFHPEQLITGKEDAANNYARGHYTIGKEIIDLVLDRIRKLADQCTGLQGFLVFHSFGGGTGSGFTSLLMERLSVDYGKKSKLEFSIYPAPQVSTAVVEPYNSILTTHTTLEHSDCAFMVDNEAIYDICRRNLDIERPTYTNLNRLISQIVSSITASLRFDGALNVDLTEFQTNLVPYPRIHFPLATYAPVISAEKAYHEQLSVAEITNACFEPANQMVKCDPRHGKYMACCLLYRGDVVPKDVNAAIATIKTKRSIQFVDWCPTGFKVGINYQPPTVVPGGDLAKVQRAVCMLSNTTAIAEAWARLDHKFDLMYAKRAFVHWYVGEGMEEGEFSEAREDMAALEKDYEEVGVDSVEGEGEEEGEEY
β-tubulin, sequence (P02554 whole entry): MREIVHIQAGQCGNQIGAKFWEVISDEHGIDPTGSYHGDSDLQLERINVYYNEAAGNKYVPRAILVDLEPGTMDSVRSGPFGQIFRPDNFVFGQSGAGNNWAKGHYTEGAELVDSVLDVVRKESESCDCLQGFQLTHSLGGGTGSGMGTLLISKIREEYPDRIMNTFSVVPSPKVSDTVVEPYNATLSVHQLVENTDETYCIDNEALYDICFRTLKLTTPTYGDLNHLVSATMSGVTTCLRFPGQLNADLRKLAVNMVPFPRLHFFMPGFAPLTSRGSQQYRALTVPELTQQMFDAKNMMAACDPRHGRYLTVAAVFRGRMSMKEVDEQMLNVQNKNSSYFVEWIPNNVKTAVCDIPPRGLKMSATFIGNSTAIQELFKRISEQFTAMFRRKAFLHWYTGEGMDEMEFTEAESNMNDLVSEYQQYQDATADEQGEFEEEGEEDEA

SMILES: CCCCc1ccc2[nH]c(NC(=O)OC)nc2c1 [parbendazole]
- Kd: 3.39 µM
